Our source for the melting point values is a melting point compilation (Tetko et al.; mined from patent text by program, amines drawn as free bases though some values may be those of a salt).

`Cc1ccc(C2=NC(C)(C)C(c3ccncc3)C2)cc1` (stereo unspecified) gave a melting point of 102 °C.

`O=C(O)CC(O)(Cn1cncn1)c1ccc(Cl)cc1Cl` (stereo unspecified) displayed a melting point of 158 to 159 °C.

With `Cc1nc(COc2ccc(Cl)cc2)sc1C(=O)N[C@H](C)[C@](O)(Cn1cncn1)c1ccc(F)cc1F`, the melting point was 134 to 135 °C.

Consider `CNC(=S)NS(=O)(=O)c1cc2c(cc1OC)OCC(NC(=O)c1cc(F)ccc1OC)C2` (stereo unspecified), for which the melting point lay in the range of 221 to 222 °C.

Consider `COC(=O)NN=C(C)c1cc(Cl)ccc1NS(=O)(=O)C(F)(F)F`, for which the melting point fell in the range of 211 to 214 °C.

Compound `CC(=O)c1ccc(OC2SCC(O)C(O)C2O)cc1` (stereo unspecified) gave a melting point of 195 to 198 °C.

The compound `NC(=O)c1sc(-c2ccccc2)cc1N` showed a melting point of 180 to 182 °C.

In the case of `N#CSCCNc1ccccc1[N+](=O)[O-]`, the melting point is 112 to 113 °C.

In turn, `O=c1cc(-c2nnn[nH]2)oc2cc(CCc3cccc(OCc4ccc5ccccc5n4)c3)ccc12` came in with a melting point of 201 to 205 °C.

On to `CC(C)Oc1ccc(-c2nc(=O)c3ccccc3s2)cn1`, for which the melting point was found to be 110 °C.

`Cc1c(C)c2c(c(C)c1N)C(c1ccc(C(C)C)cc1)C1(CCCC1)O2` (stereo unspecified) registered a melting point of 132 to 133 °C.

Compound `CCCc1c(OC)c(OC)cc2c1C(=O)N(CSc1nnnn1-c1ccccc1)S2(=O)=O` yielded a melting point of 145 to 146 °C.

Compound `COC1CC(n2cc(C=CBr)c(=O)[nH]c2=O)OC1CCl` (stereo unspecified) had a melting point of 145 °C.

`CC=CCNc1cc(C(=O)O)cc(S(N)(=O)=O)c1Sc1ccc(N)cc1` returned a melting point of 242 °C.

Turning to `CCCc1c(OCc2ccc(CC#N)cc2)ccc(C(C)=O)c1O`, the melting point was 75 to 76 °C.

The compound `CO[C@@H]1c2ccn3c(C)c(C)nc3c2N[C@H](c2ccccc2)[C@H]1OC(=O)c1ccccc1` registered a melting point of 92 to 93 °C.

On to `COc1cc(Nc2c(C#N)cnc3cc(-c4ccc(CNCCS(=O)(=O)c5ccccc5)cc4)ccc23)c(Cl)cc1Cl`, for which the melting point lay within 198 to 201 °C.

`COc1ccc(N2CCOCC2)c2sc(C(=O)NCc3ccccc3)nc12` registered a melting point of 156 to 158 °C.

`CC(C)(C)OC(=O)c1nc(C2CC2)[nH]c(=O)c1OCc1ccccc1` registered a melting point of 164 °C.

As to `COC(=O)Cn1c(=O)c(=O)[nH]c2cc([N+](=O)[O-])c(Cl)cc21`, the melting point is greater than 260 °C.

In turn, `CCc1c(C)[nH]c2cc(OCOC)c(Cl)cc2c1=O` registered a melting point of 217 to 219 °C.

`CCN(CC)CCCC1CCN(CCNC(=O)N2c3ccccc3NC(=O)c3csc(C)c32)CC1` registered a melting point of 131 to 133 °C.

The compound `Nc1ccnc(CCl)n1` gave a melting point of 125 to 128 °C.

In the case of `CC1(C)CC(N2C(=O)c3ccc(C(=O)OCC(O)c4ccccc4)cc3C2=O)CC(C)(C)N1` (stereo unspecified), the melting point fell in the range of 144 to 146 °C.

`CC(C)C(=O)N[C@H]1N=C(c2ccccc2)c2ccccc2N(C)C1=O` registered a melting point of 87 to 107 °C.

The compound `CCOC(=O)c1nc2scc(CNC(=O)c3ccccc3)c2c(=O)[nH]1` showed a melting point of 204 °C.

Consider `O=C(NCCO[N+](=O)[O-])c1ccoc1`, for which the melting point fell in the range of 80 to 82 °C.

For `CC(=O)Nc1ccc(S(=O)(=O)NCc2cc3c(ccc4cnn(C[C@H](C)N)c43)o2)cc1`, the melting point lay in the range of 80 to 85 °C.

In the case of `O=C(Nc1cccc(Br)c1)NC1N=C(c2ccccc2F)c2ccccc2N(CC(=O)N2CC3CCC(CC3)C2)C1=O` (racemic), the melting point was 173 to 186 °C.

`CC1(COC2(C(F)(F)F)CN(C3CC3)C(=O)Nc3ccc(Cl)cc32)CC1` (stereo unspecified) had a melting point of 166 to 167 °C.

The compound `CCOC(=O)c1cnc(Oc2cc(OCCOC)ccc2CCCOC(=O)NCC2CC2)c(Cl)c1` registered a melting point of 94.6 to 94.8 °C.

In turn, `O=C(CCCl)N1Cc2cccc3[nH]cc(c23)C1` came in with a melting point of 158 to 161 °C.

`CC#CCOc1cc(Oc2ccc(F)c(F)c2)ncn1` came in with a melting point of 110 °C.

`N#Cc1ccc(N2CCN(c3ccnc(Cl)n3)CC2)cc1`: the melting point lay within 216 to 218 °C.

Turning to `O=C(NC(=O)C(F)(F)F)c1ccccc1-c1noc(-c2ccccc2F)n1`, the melting point was 119 to 120 °C.

For the compound `COC(C)C(=O)Nc1ccc(C2=NNC(=O)CC2C)cc1` (stereo unspecified), the melting point is 193 to 194 °C.

Compound `COc1cc2c(c3c1OC(C)(C)C3)C(c1ccc(N)cc1)=NC(C)(C)C2` showed a melting point of 192 to 195 °C.

On to `CC(C)(C)OC(=O)[C@H]1CC[C@@H](c2ccccc2)N1C(=O)CNC(=O)Nc1ccc(O)c(C(=O)O)c1` (racemic), for which the melting point came to 190 °C.

Consider `COCc1nc2c(N)nc3c(c2n1CC(C)(C)OCCS(C)(=O)=O)CCCC3`, for which the melting point was 195 to 197 °C.

Take `O=c1c2ccccc2ccn1CCC#Cc1ccccn1`: the melting point is 85 to 90 °C.

Take `COC(=O)c1nc(-c2ccc(Cl)c(S(C)=O)c2F)nc(N)c1Cl` (stereo unspecified): the melting point is 256 to 258 °C.

In turn, `NN1CCNC1=C[N+](=O)[O-]` displayed a melting point of 159 to 160 °C.

The compound `Cc1cc(-c2nc3ccc(F)cc3s2)ccc1N` yielded a melting point of 203 to 205 °C.

`Cc1sc2nc(SCCCN3CCN(c4ccc5ccccc5n4)CC3)[nH]c(=O)c2c1C` yielded a melting point of 225 to 226 °C.

The compound `OCn1c2ccccc2c2ccccc21` came in with a melting point of 127 to 129 °C.

As to `Cc1c(C)n(CC2CCCCC2)c2c(OCc3ccc(F)cc3)nncc12`, the melting point was 108 to 109 °C.

Regarding `CN1C(C)(C)CC(OC(=O)CCC(C)(c2ccc(O)c(C(C)(C)C)c2)c2ccc(O)c(C(C)(C)C)c2)CC1(C)C`, the melting point amounted to 203 °C.

`O=C1COc2cc(Br)c(F)cc2N1` registered a melting point of 244 °C.

As to `O=Cc1cccnc1Br`, the melting point was 74 to 76 °C.

Regarding `CCN1CCN(c2ccc(C(=O)OC)cc2)CC1`, the melting point was in the range of 102 to 104 °C.

Consider `COc1ccccc1Nc1nc(-c2ccccc2)c(C(=O)c2sc(Nc3ccccc3OC)nc2-c2ccccc2)s1`, for which the melting point was greater than 285 °C.

The compound `COC1(c2cccc(Oc3nc(-c4ccccc4)c(-c4ccc(S(N)(=O)=O)cc4)o3)c2)CCOCC1` came in with a melting point of 145 to 147 °C.

With `Cn1ncc(Cl)c(NCCCN2CCC(c3noc4cc(F)ccc34)CC2)c1=O`, the melting point was in the range of 117 to 119 °C.

In turn, `CC(=O)NCCCCCC(=O)N1CC1C#N` (stereo unspecified) displayed a melting point of 74 to 77 °C.

On to `NC(=O)NNc1c(Cl)cccc1Cl`, for which the melting point was 288 to 290 °C.

`COc1cc2c(cc1-c1c(C)nn(C)c1C)-c1c(-c3cccs3)c3c(n1CC2)C(=O)N(C(C)C)CCN(C(=O)CCC(F)(F)F)C3` displayed a melting point of 256 to 258 °C.

For `C(=C\c1nc(COc2cccc(CCCn3cncn3)c2)co1)/c1ccccc1`, the melting point was in the range of 59 to 60 °C.

Consider `O=C(O)C=CC(=O)c1ccc(Oc2ccccc2Cl)cc1`, for which the melting point lay within 145 to 147 °C.

`COC(=O)CCCCCCCCCCCNC(=O)NC12CC3CC(CC(C3)C1)C2` had a melting point of 75 °C.

For the compound `CC(C)(C)C(=O)CC(=O)NC1CCCCC1`, the melting point lay within 69 to 70 °C.

As to `CCCCc1nc(I)c(C=O)[nH]1`, the melting point was 80 to 85 °C.

Compound `CN(N)C(=O)Nc1ccccc1Oc1ccccc1` had a melting point of 117 to 119 °C.

`COc1cc2c(cc1OC)CC(C(=O)N1CCN(C(=O)c3cc(OC)c(OC)c(OC)c3)CC1)=C2`: the melting point was in the range of 183 to 185 °C.

On to `CCn1nc(O)nc1S`, for which the melting point was in the range of 193 to 195 °C.

`NNC(=S)C12CC3CC(CC(C3)C1)C2`: the melting point is 204 to 206 °C.

As for `CC[C@@H](C)NC1=NS(=O)(=O)c2sc(Cl)cc2N1`, the melting point fell in the range of 215 to 220 °C.

`CC1CNCCN1c1c(F)c(N)c2c(=O)c(C(=O)O)cn(C3CC3)c2c1F` (stereo unspecified) displayed a melting point of 224 to 226 °C.

In the case of `CCCC(C)SC(=O)c1ccc(NC(=O)NC)cc1Cl` (stereo unspecified), the melting point fell in the range of 89 to 95 °C.

As for `CNCc1nc(CSCCNC(=C[N+](=O)[O-])NC)cs1`, the melting point was 105 to 107 °C.

`C=C(C)C(=O)c1cc(O)c(O)c([N+](=O)[O-])c1` registered a melting point of 98 to 102 °C.

With `CN1CCC(c2c[nH]c3ccc(NC(=O)c4ccoc4)nc23)CC1`, the melting point lay within 105 to 108 °C.

The compound `CC(C)c1cccc(CN2C[C@H](CO)OC2=O)c1` had a melting point of 75 to 77 °C.

Turning to `COc1cc2c(cc1OC)CN(CC(O)CC1(c3noc4cc(F)ccc34)CCNCC1)CC2` (stereo unspecified), the melting point is 153 to 154 °C.

`Cn1c(=O)n2nc(CO)cc2c2ccccc21` had a melting point of 183 to 184 °C.

`Cn1cc(CS(C)(=O)=O)c(=O)c2ccc(Cl)cc21` gave a melting point of 215 to 216 °C.

With `CNC(=O)COc1cc(C)ccc1O`, the melting point lay in the range of 163 to 165 °C.

Turning to `CCCC(O)C1(C)OC(C)=C(O)C1=O` (stereo unspecified), the melting point lay within 103 to 104 °C.

Turning to `CCNCC1CCN(c2nc3c(cc2F)c(=O)c(C(=O)O)cn3C2CC2)C1` (stereo unspecified), the melting point lay in the range of 268 to 270 °C.

For `Cc1cc(CCCCCCc2c(Cl)cc(C3=NCCO3)cc2Cl)on1`, the melting point fell in the range of 65 to 66 °C.

Take `COc1ccc(C(=O)n2c3c(c4ccccc42)CC(C(=O)O)(C(=O)O)CC3)cc1`: the melting point is 205 to 207 °C.

As for `COc1ccnc(Nc2nc(-c3cc(-c4ccccc4)no3)cs2)c1`, the melting point is 177 to 179 °C.

`CC1=C(C(=O)OC(C)C)C(c2cccc([N+](=O)[O-])c2)N(C(=O)OC(C)C)C(=S)N1` (stereo unspecified): the melting point amounted to 138 °C.

With `CC(=O)c1ccc(N2CCN(Cc3n[nH]c4ccccc34)CC2)cc1`, the melting point was 198 to 200 °C.

With `CCC1C(C)=NN=C(c2ccc(OC)cc2)c2cc(OC)c(OC)cc21` (stereo unspecified), the melting point is 157 to 159 °C.

As for `CN(NC(=O)c1ccccc1C(=O)O)c1nc2ccccc2o1`, the melting point fell in the range of 140 to 142 °C.

`CC(C)(C)OC(=O)NC(CSCc1ccc(-c2ccc(-c3ccc4c(c3)OCO4)cc2)cc1)C(=O)O` (stereo unspecified) yielded a melting point of 178 to 180 °C.

The compound `CC1(C)OCC(CONC(=O)c2ccc(F)c(F)c2Nc2ccc(I)cc2F)O1` (stereo unspecified) showed a melting point of 114 to 115 °C.

`CC(O)(c1ccc(F)cc1)C1CCNCC1` (stereo unspecified): the melting point fell in the range of 184 to 186 °C.

Consider `CCCCCCCCCCCCCCCCCCC1CC(=O)N(c2ccc(N)cc2O)C1=O` (stereo unspecified), for which the melting point lay in the range of 85 to 90 °C.

With `NC(=O)C1CN(CC(=O)Nc2c(Cl)cccc2Cl)CCN1` (stereo unspecified), the melting point was in the range of 180 to 183 °C.

Regarding `CC(C)c1cccc(C(C)C)c1NC(=O)CNC(c1ccccc1)c1ccc(Br)cc1` (stereo unspecified), the melting point is 154 to 155 °C.

By melting point is commonly meant the temperature of the solid-liquid transition.
